# What was measured:
# Type in all cases: cell-based, human
# [1] = tested on: hEPCs; experiment: hEPC 3H-thymidine incorporation proliferation assay; settings: L-Hcy 50 to 250 μmol/L, 24 h
# Description: In this study EPCs refer to endothelial colony-forming cells (ECFCs) and their progenitor cell capacities were characterized as described (Wu, Y et al., J Thromb Haemost, 2010; 8:185-193; Wang, H et al., Circulation research, 2004; 94:843 and Stellos, K et al., Eur Heart J., 2009; 30:584-593). Briefly, human blood was collected from healthy volunteer donors. All volunteers had no risk factors of CVD including hypertension, diabetes, smoking, positive family history of premature CVD and hypercholesterolemia, and were all free of wounds, ulcers, retinopathy, recent surgery, inflammatory, malignant diseases, and medications that may influence EPC kinetics. […] After staining, cells were imaged with high-power fields under an inverted fluorescent microscope (Axiovert 200, Carl Zeiss, Thornwood, N.Y.) at 200× magnification and quantified using Image J software. […]
# ^3H thymidine incorporation assay was used to detect EPC proliferation activity as previously described (Tan, H et al., Cardiovascular research, 2006; 69:253-262). ^3EPCs were seeded onto 24-well plates (5×10^4 cells/well) in EGM2 medium and exposed to L-Hcy (50 to 250 μmol/L) for 24 h after grown to 70-80% confluence. […] Incorporated [methyl-^3H] thymidine was measured in a liquid scintillation counter (PerkinElmer Inc. Waltham, Mass., USA).
# [2] = tested on: hEPCs; experiment: hEPC viability by crystal violet staining; settings: L-Hcy 48 h
# Experimental: Confluent hEPCs were treated with L-Hcy at indicated concentrations for functional studies as described in the section of Methods. FIG. 5A. […] FIG. 5B. Representative images of hEPC adhesion. hEPCs treated with L-Hcy for 48 h were harvested and plated on fibronectin-coated cell culture plates for 1 hour at 37° C. Attached cells were photographed and quantified in high-power fields under an inverted microscope. FIG. 5C. Quantitative analysis of adhesion. FIG. 5D. Representative images of hEPC migration. Confluent hEPCs were incubated with L-Hcy for 48 h, scratched to create a wound and evaluated for migration after 20 h. E. Quantitative analysis of migration. FIG. 5F. Quantitative analysis of hEPC proliferation. 80% confluent hEPCs were treated with L-Hcy for 24 h and labeled with ^3[H]-thymidine for the last 4 h. Incorporated ^3[H]-thymidine was measured in a liquid scintillation counter. FIG. 5G. Quantitative analysis of hEPC viability. Confluent hEPCs were treated with L-Hcy for 48 h and nuclear counts determined by crystal violet staining to determine the viable cells. Data are representative of 3 separate experiments and are shown as mean±SD. *P<0.05 versus control. hEPCs; human endothelial progenitor cells; Hcy, homocysteine.
# [3] = tested on: hEPCs; experiment: hEPC scratch wound migration assay
# Description: (§1) In this study EPCs refer to endothelial colony-forming cells (ECFCs) and their progenitor cell capacities were characterized as described (Wu, Y et al., J Thromb Haemost, 2010; 8:185-193; Wang, H et al., Circulation research, 2004; 94:843 and Stellos, K et al., Eur Heart J., 2009; 30:584-593). Briefly, human blood was collected from healthy volunteer donors. All volunteers had no risk factors of CVD including hypertension, diabetes, smoking, positive family history of premature CVD and hypercholesterolemia, and were all free of wounds, ulcers, retinopathy, recent surgery, inflammatory, malignant diseases, and medications that may influence EPC kinetics. After dilution with HBSS (1:1), blood was overlaid onto Histopaque 1077 (Sigma-Aldrich Co. LLC, St. Louis, Mo.) in the ratio of 1:1 and centrifuged at 740 g for 30 minutes at room temperature. Buffy coat MNCs were collected and centrifuged at 700 g for 10 minutes at room temperature. MNCs were cultured in collagen type I (BD Bioscience, San Diego) (50 m/ml)-coated dishes with EBM2 basal medium (Lonza Inc., Allendale, N.J.) plus standard EGM-2 SingleQuotes (Lonza Inc., Allendale, N.J.) that includes 2% fetal bovine serum (FBS), EGF (20 ng/ml), hydrocortisone (1 μg/ml), bovine brain extract (12 μg/ml), gentamycin (50 μg/ml), amphotericin B (50 ng/ml), and epidermal growth factor (10 ng/ml). Colonies appeared between 5 and 22 days of culture were identified as a well-circumscribed monolayer of cobblestone-appearing cells. ECFCs with endothelial lineage markers expression, robust proliferative potential, colony-forming, and vessel-forming activity in vitro are defined as EPCs as described (Wang, H et al., Circulation research, 2004; 94:843 and Stellos, K et al., Eur Heart J., 2009; 30:584-593). Passage 4 to 6 EPCs were used for experiments. For a brief characterization, endothelial phagocytosis function was confirmed by incubating EPC in 4-well chamber slide with 1, 1-dioctadecyl-3, 3, 3, 3-tetramethylindocarbocyanine (DiI)-labeled acetylated low-density lipoprotein (acLDL) (Biomedical Technologies, Inc., Stoughton, Mass.) (5 m/ml) at 37° C. for 1 h, washed 3 times for 15 min in PBS, and then fixed with 2% paraformaldehyde for 10 min. […] After staining, cells were imaged with high-power fields under an inverted fluorescent microscope (Axiovert 200, Carl Zeiss, Thornwood, N.Y.) at 200× magnification and quantified using Image J software. […]
# EPC migration was evaluated using a scratch wound assay as previously described (Tan, H et al., Cardiovascular research, 2006; 69:253-262). […]
# [4] = tested on: hEPCs; experiment: hEPC adhesion assay on fibronectin; settings: L-Hcy 250 μmol/L, 48 h
# Description: as §1, with “cells.” for “cells. ECFCs with endothelial lineage markers expression, robust proliferative potential, colony-forming, and vessel-forming activity in vitro are defined as EPCs as described (Wang, H et al., Circulation research, 2004; 94:843 and Stellos, K et al., Eur Heart J., 2009; 30:584-593). Passage 4 to 6 EPCs were used for experiments. For a brief characterization, endothelial phagocytosis function was confirmed by incubating EPC in 4-well chamber slide with 1, 1-dioctadecyl-3, 3, 3, 3-tetramethylindocarbocyanine (DiI)-labeled acetylated low-density lipoprotein (acLDL) (Biomedical Technologies, Inc., Stoughton, Mass.) (5 m/ml) at 37° C. for 1 h, washed 3 times for 15 min in PBS, and then fixed with 2% paraformaldehyde for 10 min.”
# EPC adhesion to extracellular matrix (ECM) was evaluated as previously described. […] Adherent cells were photographed with high-power fields under an inverted fluorescent microscope (Axiovert 200, Carl Zeiss, Thornwood, N.Y.) at 200× magnification and quantified by counting the attached cells using image J.
structure (smiles),measurement,setting,value
"N[C@@H](CCS)C(=O)O [L-Hcy, homocysteine]",DNA synthesis ([3H] thymidine uptake),[1],dose sensitively inhibited
same,EPC viability,[2],no effect
same,hEPC migration (value in brackets),[3]; Hcy 100 μmol/L,54.6±2.8
same,hEPC migration reduced to,[3]; Hcy 100 μmol/L,68%
same,hEPC migration (value in brackets),[3]; Hcy 250 μmol/L,49.7±1.1
same,hEPC migration reduced to,[3]; Hcy 250 μmol/L,62%
same,EPC adhesion to fibronectin compared with the control,[4],57%
same,Hcy-suppressed adhesion in hEPC (without 12G10),[4]; adhesion rescue experiment,62%
same,EPC adhesion to fibronectin,[4]; control 0.13±0.006,0.06±0.008 OD630 nm

# Reference: patent US9901639B2, “Bone marrow origin progenitor cell or endothelial progenitor cell in combination with DNMT1 gene therapy for vascular repair in metabolic disease” (Temple University—of the Commonwealth System of Higher …, priority 2015, dated 2018)
